Publication PMC2808703 (Bioorganic & medicinal chemistry, 2009)
Like-named read-outs stand apart in the source and are kept apart here.

Assays:
[1] = test system: phospho-Akt in BxPC-3 pancreatic cancer cells; details: hits experimentally tested and confirmed active; cited from earlier work
[2] = test system: Caco-2; details: curated dataset; cited from earlier work
[3] = test system: phospho-Akt in BxPC-3 pancreatic cancer cells; assay: Cell inhibition of phospho-Akt in BxPC-3 pancreatic cancer cells; assay type: cell-based; details: for IC50: Homo sapiens, BXPC-3, read-out: IC50 (Akt inhibition)

Row | Compound | Caco-2 permeability, experimental [2] [×10⁻⁶ cm/s] | IC50 [3] [µM] | other results
1 | Cc1nnc(NS(=O)(=O)c2ccc(NS(=O)(=O)c3ccc4ccccc4c3)cc2)s1 [Compound 9] | – | – | IC50 [1]: 20 µM
2 | CO/N=C(\C(=O)N[C@@H]1C(=O)N2C(C(=O)O)=C(CSc3nc(=O)c(O)nn3C)CS[C@H]12)c1csc(N)n1 [cerftriaxone] | 0.13 | – | –
3 | CN1CCN(CC(=O)N2c3ccccc3C(=O)Nc3cccnc32)CC1 [pirenzepine] | 0.437 | – | –
4 | CCCCCCCCCC(=O)Nc1ccc(S(=O)(=O)Nc2nncs2)cc1 [Compound 13] | – | 10 | –
5 | COc1cccc2c1C(=O)c1c(O)c3c(c(O)c1C2=O)C[C@@](O)(C(=O)CO)C[C@@H]3O[C@H]1C[C@H](N)[C@H](O)[C@H](C)O1 [doxorubicin] | 0.16 | – | –
6 | CC(C)Cc1ccc(C(C)C(=O)O)cc1 (stereo not shown) [ibuprofen] | 52.5 | – | –
7 | COCCOCCOCC(=O)Nc1ccc(S(=O)(=O)Nc2nncs2)cc1 [Compound 12] | – | > 50 | –
8 | CC(=O)Nc1ccc(S(=O)(=O)Nc2nncs2)cc1 [Compound 11] | – | > 50 | IC50 (Akt inhibition) ([3]; BxPC-3 cells, phospho-Akt): no activity
9 | C[C@H]1[C@H](OC(=O)CCC(=O)O)O[C@@H]2O[C@@]3(C)CC[C@H]4[C@H](C)CC[C@@H]1[C@@]24OO3 [sodium artesunate] | 3.98 | – | –
